Data on eleven molecules can be found in ChEMBL document CHEMBL4190309, “Synthesis, antimicrobial, DNA cleavage and antioxidant activities of tricyclic sultams derived from saccharin” (Eur J Med Chem, 2017).

≈ marks a conversion by molar mass, not a printed value. Calls of active or inactive are those of the source. The calls are words filed in the database; no cut-off is given here.

The nature of assay [1]: Antiproliferative activity against hepatic cancer cells (unknown origin) at 50 uM by MTT assay relative to control. The format is functional. A general note: Formazan colour is commonly taken as a measure of viable cells.
Assay [2] relates to DNA. Description: Induction of Escherichia coli DNA cleavage at 8 uM after 1 hr by […] staining-based agarose gel electrophoresis. The format is nucleic-acid assay.
Assay [3] is described as follows: Antioxidant activity assessed as ABTS radical scavenging activity at 2 uM by spectrophotometric analysis. It is filed as functional.
The next assay concerns Priestia megaterium. Description: Antibacterial activity against Bacillus megaterium ATCC 14591 assessed as diameter of inhibition zone at 100 uM after 24 hrs by cup diffusion method. It is filed as functional. The following applies: ATCC 14591, 24 h, read-out: DIZ.
For assay [4], the system named is Escherichia coli. The experiment in a line: Antibacterial activity against Escherichia coli ATCC 25922 after 24 hrs by serial dilution method. The format is functional. The following applies: ATCC 25922, 24 h.
Assay [5] concerns DNA. The experiment in a line: Induction of Escherichia coli DNA cleavage after 1 hr by […] staining-based agarose gel electrophoresis. The format is nucleic-acid assay.
Assay [6] concerns DNA. The experiment in a line: Induction of Escherichia coli DNA cleavage at 10 to 12 uM after 1 hr by […] staining-based agarose gel electrophoresis. It is filed as nucleic-acid assay.
Assay [7] concerns Escherichia coli. The experiment in a line: Antibacterial activity against Escherichia coli ATCC 25922 assessed as diameter of inhibition zone at 100 uM after 24 hrs by cup diffusion method. It is filed as functional. Particulars: ATCC 25922, 24 h, read-out: DIZ.
Assay [8] in a line: Antioxidant activity assessed as superoxide anion scavenging activity at 2 uM at pH 8.3 by NBT/NADH/PMS assay relative to control. It is filed as functional.
Assay [9] deals with Pseudomonas aeruginosa. Description: Antibacterial activity against Pseudomonas aeruginosa ATCC 27853 after 24 hrs by serial dilution method. It is filed as functional. The following applies: ATCC 27853, 24 h.
The subject of assay [10] is Staphylococcus aureus. Description: Antibacterial activity against Staphylococcus aureus ATCC 25923 after 24 hrs by serial dilution method. It is filed as functional. Particulars: ATCC 25923, 24 h.
Assay [11] can be described thus: Antioxidant activity assessed as superoxide anion scavenging activity at pH 8.3 by NBT/NADH/PMS assay. The format is functional.
The subject of assay [12] is DNA. The experiment in a line: Induction of Escherichia coli DNA cleavage at 2 uM after 1 hr by […] staining-based agarose gel electrophoresis. The format is nucleic-acid assay.
Assay [13] concerns Staphylococcus aureus. The experiment in a line: Antibacterial activity against Staphylococcus aureus ATCC 25923 assessed as diameter of inhibition zone at 100 uM after 24 hrs by cup diffusion method. It is filed as functional. Particulars: ATCC 25923, 24 h, read-out: DIZ.
The test system of assay [14] is Pseudomonas aeruginosa. The experiment in a line: Antibacterial activity against Pseudomonas aeruginosa ATCC 27853 assessed as diameter of inhibition zone at 100 uM after 24 hrs by cup diffusion method. It is filed as functional. The following applies: ATCC 27853, 24 h, read-out: DIZ.
Assay [15] relates to DNA. Description: Induction of Escherichia coli DNA cleavage at 6 uM after 1 hr by […] staining-based agarose gel electrophoresis. The format is nucleic-acid assay.
Assay [16] deals with DNA. Description: Induction of Escherichia coli DNA cleavage at 4 uM after 1 hr by […] staining-based agarose gel electrophoresis. The format is nucleic-acid assay.

Regarding `COc1ccc(NC(=O)C2=C3c4ccccc4S(=O)(=O)N3CC2)cc1`, the Activity is 61% in assay [1]; 48.2% in assay [3]; “Dose-dependent effect” with DNA [5]; 49.4% in assay [8]; “Dose-dependent effect” in assay [11]. Besides, the outcome in the assay on DNA [2] and with DNA [6] was Active. For the same molecule, the zone of inhibition at 100 µM in the assay on Priestia megaterium is 13 mm; in the assay on Escherichia coli [7] it was 15 mm; in the assay on Staphylococcus aureus [13], 16 mm; in the assay with Pseudomonas aeruginosa [14], 14 mm. Besides, the MIC was determined as 22 µg/mL (≈ 61.7 µM) against Escherichia coli [4], 33 µg/mL (≈ 92.6 µM) against Pseudomonas aeruginosa [9] and 22 µg/mL (≈ 61.7 µM) against Staphylococcus aureus [10]. Moreover, the half-maximal inhibitory concentration (IC50) in assay [11] came to 2020 nM. Moreover, in the assay on DNA [12], the result was inactive.

For `O=C(Nc1ccccc1)C1=C2c3ccccc3S(=O)(=O)N2CC1`, the Activity in [1] was 58.6%; in assay [3], 46.9%; in the assay with DNA [5], “Dose-dependent effect”; in assay [8], 44.8%; in assay [11] it was “Dose-dependent effect”. Besides, the zone of inhibition at 100 µM stood at 12 mm in the assay on Priestia megaterium, 13 mm with Escherichia coli [7], 14 mm in the assay with Staphylococcus aureus [13] and 12 mm with Pseudomonas aeruginosa [14]. The minimal inhibitory concentration (MIC) with Escherichia coli [4] was found to be 21 µg/mL (≈ 64.3 µM); in the assay on Pseudomonas aeruginosa [9] it was 28 µg/mL (≈ 85.8 µM); against Staphylococcus aureus [10], 16 µg/mL (≈ 49 µM). Moreover, the outcome with DNA [6] was Active. For the same molecule, the half-inhibitory concentration (IC50) in assay [11] amounted to 2230 nM. Further, the result in the assay with DNA [12] was inactive.

Take `CCOC(=O)C1=C2c3ccccc3S(=O)(=O)N2CC1`: the Activity in [1] is 19.6%; in assay [3], 46.7%; in the assay with DNA [5] it was “Dose-dependent effect”; in [8] it was 48.3%; in assay [11], “Dose-dependent effect”. Besides, the result with DNA [2] and with DNA [6] was Active. Further, the zone of inhibition at 100 µM in the assay on Priestia megaterium was 16 mm; with Escherichia coli [7], 16 mm; in the assay on Staphylococcus aureus [13], 17 mm; in the assay on Pseudomonas aeruginosa [14], 14 mm. The MIC amounted to 18 µg/mL (≈ 64.4 µM) against Escherichia coli [4], 15 µg/mL (≈ 53.7 µM) against Pseudomonas aeruginosa [9] and 14 µg/mL (≈ 50.1 µM) against Staphylococcus aureus [10]. Further, the 50% inhibitory concentration (IC50) in assay [11] amounted to 2070 nM. Also, in the assay on DNA [12], the outcome was inactive.

Turning to `CC1(C)[C@H]2CC[C@]1(C)[C@H](OC(=O)C1=C3c4ccccc4S(=O)(=O)N3CC1)C2`, the Activity in [1] is 63%; in assay [3] it was 62.7%; in the assay on DNA [5] it was “Dose-dependent effect”; in assay [8], 60.1%; in assay [11] it was “Dose-dependent effect”. The result in the assay with DNA [2], in the assay on DNA [6] and in the assay on DNA [15] was Active. The zone of inhibition at 100 µM is 17 mm in the assay with Priestia megaterium, 16 mm in the assay on Escherichia coli [7], 18 mm in the assay on Staphylococcus aureus [13] and 14 mm with Pseudomonas aeruginosa [14]. Moreover, the figures for the minimum inhibitory concentration (MIC) with Escherichia coli [4], against Pseudomonas aeruginosa [9] and with Staphylococcus aureus [10] were 23 µg/mL (≈ 59.4 µM), 27 µg/mL (≈ 69.7 µM) and 18 µg/mL (≈ 46.5 µM), respectively. Besides, the IC50 in assay [11] is 1660 nM. For the same molecule, in the assay on DNA [12], the outcome was inactive.

Consider `CN[C@H](CC(C)C)C(=O)N[C@H]1C(=O)N[C@@H](CC(N)=O)C(=O)N[C@H]2C(=O)N[C@H]3C(=O)N[C@H](C(=O)N[C@H](C(=O)O)c4cc(O)cc(O)c4-c4cc3ccc4O)[C@H](O)c3ccc(c(Cl)c3)Oc3cc2cc(c3O[C@@H]2O[C@H](CO)[C@@H](O)[C@H](O)[C@H]2O[C@H]2C[C@](C)(N)[C@H](O)[C@H](C)O2)Oc2ccc(cc2Cl)[C@H]1O` [VANCOMYCIN], for which the minimum inhibitory concentration (MIC) against Staphylococcus aureus [10] was 14 µg/mL (≈ 9.66 µM).

With `O=C(OCCCl)C1=C2c3ccccc3S(=O)(=O)N2CC1`, the Activity in [1] is 59.6%; in [3], 64.8%; with DNA [5] it was “Dose-dependent effect”; in assay [8], 63.1%; in assay [11], “Dose-dependent effect”. Further, the result in the assay on DNA [2], in the assay on DNA [6], in the assay on DNA [16] and in the assay with DNA [15] was Active. Also, the zone of inhibition at 100 µM in the assay on Priestia megaterium was determined as 20 mm; with Escherichia coli [7] it was 17 mm; with Staphylococcus aureus [13], 20 mm; in the assay on Pseudomonas aeruginosa [14] it was 18 mm. For the same molecule, the figures for the minimum inhibitory concentration (MIC) in the assay on Escherichia coli [4], in the assay with Pseudomonas aeruginosa [9] and with Staphylococcus aureus [10] were 21 µg/mL (≈ 66.9 µM), 20 µg/mL (≈ 63.7 µM) and 8 µg/mL (≈ 25.5 µM), respectively. Besides, the IC50 in [11] was determined as 1580 nM. Besides, in the assay with DNA [12], the result was inactive.

As to `Cc1ccccc1NC(=O)C1=C2c3ccccc3S(=O)(=O)N2CC1`, the Activity was 49.6% in assay [1]; 62.5% in assay [3]; “Dose-dependent effect” in the assay with DNA [5]; 61.7% in [8]; “Dose-dependent effect” in assay [11]. Also, the zone of inhibition at 100 µM came out at 20 mm in the assay with Priestia megaterium, 17 mm in the assay with Escherichia coli [7], 19 mm in the assay on Staphylococcus aureus [13] and 18 mm in the assay on Pseudomonas aeruginosa [14]. The figures for the MIC with Escherichia coli [4], against Pseudomonas aeruginosa [9] and against Staphylococcus aureus [10] were 11 µg/mL (≈ 32.3 µM), 17 µg/mL (≈ 49.9 µM) and 12 µg/mL (≈ 35.3 µM), respectively. Also, the result in the assay on DNA [6], in the assay on DNA [16] and in the assay on DNA [15] was Active. Moreover, the 50% inhibitory concentration (IC50) in assay [11] worked out at 1620 nM. The result in the assay with DNA [12] was inactive.

Take `O=C(Nc1ccc([N+](=O)[O-])cc1)C1=C2c3ccccc3S(=O)(=O)N2CC1`: the Activity in assay [1] was 56.6%; in [3] it was 54.7%; with DNA [5] it was “Dose-dependent effect”; in [8], 51.2%; in [11] it was “Dose-dependent effect”. Also, the outcome in the assay with DNA [2] and with DNA [6] was Active. Besides, the zone of inhibition at 100 µM in the assay with Priestia megaterium was found to be 11 mm; with Escherichia coli [7] it was 13 mm; with Staphylococcus aureus [13], 12 mm; in the assay with Pseudomonas aeruginosa [14] it was 14 mm. The minimal inhibitory concentration (MIC) with Escherichia coli [4] was found to be 24 µg/mL (≈ 64.6 µM); in the assay with Pseudomonas aeruginosa [9] it was 19 µg/mL (≈ 51.2 µM); in the assay on Staphylococcus aureus [10], 18 µg/mL (≈ 48.5 µM). Also, the IC50 in assay [11] worked out at 1950 nM. Also, the outcome with DNA [12] was inactive.

Regarding `CC1(C)S[C@@H]2[C@H](NC(=O)[C@H](N)c3ccccc3)C(=O)N2[C@H]1C(=O)O` [AMPICILLIN], the zone of inhibition at 100 µM is 21 mm with Priestia megaterium, 19 mm in the assay on Escherichia coli [7], 23 mm in the assay with Staphylococcus aureus [13] and 20 mm in the assay on Pseudomonas aeruginosa [14].

Take `CC(C)[C@@H]1CC[C@@H](C)C[C@H]1OC(=O)C1=C2c3ccccc3S(=O)(=O)N2CC1`: the Activity was 70.2% in assay [1]; 60.3% in assay [3]; “Dose-dependent effect” in the assay with DNA [5]; 58.6% in assay [8]; “Dose-dependent effect” in assay [11]. The outcome in the assay on DNA [2], in the assay on DNA [6], with DNA [16] and in the assay with DNA [15] was Active. Further, the zone of inhibition at 100 µM in the assay with Priestia megaterium worked out at 18 mm; with Escherichia coli [7] it was 17 mm; with Staphylococcus aureus [13], 19 mm; with Pseudomonas aeruginosa [14], 18 mm. Further, the results for the minimal inhibitory concentration (MIC) in the assay on Escherichia coli [4], against Pseudomonas aeruginosa [9] and in the assay on Staphylococcus aureus [10] were 33 µg/mL (≈ 84.7 µM), 25 µg/mL (≈ 64.2 µM) and 24 µg/mL (≈ 61.6 µM), respectively. In addition, the IC50 in assay [11] was found to be 1710 nM. The outcome in the assay with DNA [12] was inactive.

`COC(=O)C1=C2c3ccccc3S(=O)(=O)N2CC1`: the Activity in assay [1] was 36.6%; in assay [3], 63.8%; in the assay with DNA [5], “Dose-dependent effect”; in assay [8] it was 59.4%; in assay [11] it was “Dose-dependent effect”. Moreover, the result with DNA [2], with DNA [6] and in the assay with DNA [15] was Active. For the same molecule, the zone of inhibition at 100 µM is 19 mm in the assay on Priestia megaterium, 17 mm with Escherichia coli [7], 20 mm with Staphylococcus aureus [13] and 16 mm in the assay on Pseudomonas aeruginosa [14]. In addition, the MIC is 15 µg/mL (≈ 56.5 µM) in the assay with Escherichia coli [4], 14 µg/mL (≈ 52.8 µM) with Pseudomonas aeruginosa [9] and 15 µg/mL (≈ 56.5 µM) in the assay with Staphylococcus aureus [10]. In assay [11], the IC50 turned out to be 1680 nM. The result in the assay with DNA [12] was inactive.

Broadly, the MIC is the lowest concentration found to suppress growth. Low values mean greater potency, high ones weaker potency. Broadly, the IC50 is the concentration that inhibits the measured activity by half.
